Measured values from patent publication US20090054403A1, “Treatment of Post-Traumatic Stress Disorder” (priority 2007, published 2009).
“Also recorded” adds a separate entry of the source.

Assays:
[1] = tested on: tissue noradrenaline and dopamine content; test: Tissue catecholamines in SHR after three oral doses 12 h apart; assay type: in vivo, spontaneously hypertensive rats (SHR)
Method: The activity of nepicastat at twelve selected enzymes and receptors was determined using established assays. Details of individual receptor radioligand binding assays can be found in Wong et al (1993). Binding data were analyzed by iterative curve-fitting to a four parameter logistic equation. Ki values were calculated from IC50 values using the Cheng-Prusoff equation. Enzyme inhibitory activity was expressed as IC50 (concentration required to produce 50% inhibition of enzyme activity). Male SHRs (15-16 weeks old, Charles River, Wilmington, Mass., USA) were used in the study. On the day of the study, animals were weighed and randomly assigned to be dosed with either vehicle (control) or the appropriate dose of nepicastat (3, 10, 30 or 100 mg.kg^−1, po) or (R)-5-Aminomethyl-1-(5,7-difluoro-1,2,3,4-tetrahydronaphth-2-yl)-2,3-dihydro-2-thioxo-1H-imidazole hydrochloride (30 mg.kg^−1, po) three consecutive times, twelve hours apart. At six hours after the third dose, the rats were anaesthetized with halothane, decapitated and tissues (cerebral cortex, mesenteric artery and left ventricle) were rapidly harvested, weighed, placed in iced perchloric acid (0.4 M), frozen in liquid nitrogen and stored at −70° C. until subsequent analysis. To quantify noradrenaline and dopamine concentrations, tissues were homogenized by brief sonication and centrifuged at 13,000 rpm for 30 minutes at 4° C. The supernatant, spiked with 3,4-dihydroxybenzylamine (internal standard), was assayed for noradrenaline and dopamine by HPLC using electrochemical detection.
In vivo biochemical studies in spontaneously hypertensive rats (SHR) and normal dogs. Mate SHR (15-16 week old, Charles River, Wilmington, Mass.) were used in the study. On the day of the study, the animals were weighed and randomly assigned to receive either placebo (vehicle) or the appropriate dose of 2a, 2b or 1. Each rat was dosed orally three times, 12 h apart, beginning in the morning. At 6 h after the third dose, the rats were anesthetized with halothane, decapitated, and the tissues (cerebral cortex, mesenteric artery and left ventricle) were rapidly harvested, weighed, placed in iced 0.4 M perchloric acid, frozen in liquid nitrogen and stored at −70° C. until analysis. Tissue NE and DA concentrations were assayed by HPLC using electrochemical detection.
Fifteen to sixteen week old male spontaneously hypertensive rats (SHR) (Charles River Labs) were allowed food and water ad libitum. Animals were weighed and randomly assigned to one of the following treatment groups: 1) distilled water vehicle (dH2O), or nepicastat at 3, 10, 30, and 100 mg/kg, 2) (R)-5-Aminomethyl-1-(5,7-difluoro-1,2,3,4-tetrahydronaphth-2-yl)-2,3-dihydro-2-thioxo-1H-imidazole hydrochloride at 30 mg/kg in distilled water, or 3) PEG 400:dH2O vehicle or RS-2643 1-000 at 30 mg/kg. Each rat was dosed orally (p.o., using a gavage needle) three times 12 hours apart, beginning in the morning. At six hours after the third dose rats were anesthetized with halothane, decapitated, and the cortex, mesenteric artery, and left ventricle were rapidly harvested, weighed, placed in iced 0.4 M perchioric acid, frozen in liquid nitrogen, and stored at −70° C. Tissue dopamine and norepinephrine concentrations were assayed by high performance liquid chromatography and electrochemical detection.
Four series of statistical analyses were performed. The first series compared the rats treated with various doses of nepicastat, and (R)-5-Aminomethyl-1-(5,7-difluoro-1,2,3,4-tetrahydronaphth-2-yl)-2,3-dihydro-2-thioxo-1H-imidazole hydrochloride at 30 mg/kg to the vehicle control animals. A nonparametric one-way analysis of variance (ANOVA) with factor Dose and blocking factor Day was performed for each tissue and strain separately. Overall results are reported. Pairwise analysis between treated and controls at each dose were carried out using Dunnett's test to control the experiment-wise error rate. […]

[2] = tested on: spontaneous motor activity; test: Spontaneous motor activity on day ten of chronic dosing
Method: (§1) The effects of chronic dosing of nepicastat were examined. Between three and thirteen days prior to the first dosing day the rats were placed inside the startle apparatus and after a five minute acclimation period they were presented with a 118 dB noise burst on average once a minute (a variable inter-trial interval ranging between 30 and 90 seconds will be used) for 20 minutes. The startle responses were measured and a mean for the last twenty startle response was calculated for each rat.
The animals were tested in an enclosed room with a white noise generator running. Motor activity tests were conducted immediately after the body core temperature reading taken on dosing day ten (about 3 hours and 35 minutes after the morning daily dose of nepicastat, and SKF-102698, and 20 minutes prior to the daily administration of clonidine and d-amphetamine on dosing day ten). Motor activity tests were run for one hour. A diagnostic program was run on each of the motor activity chambers prior to each test session to assure that the photo beams and light sensors were operating properly. […] D-amphetamine was used as the positive control for this assay.
Each rats spontaneous locomotion was obtained by calculating the total number of photobeams that the subject broke during the testing session.
Spontaneous motor activity was measured for each animal every 15 min for 1 hour. Each time block (every 15 min) was analyzed separately. Kruskal-Wallis test (nonparametric technique) was performed to test for the difference between treatment groups. If the overall significant difference […], Bonferroni's adjustment for multiple comparisons is then made.

pre-pulse inhibition = test: Pre-pulse inhibition of acoustic startle on day ten of chronic dosing
Method: as §1
Acoustic startle reactivity (a series of muscle contractions elicited by an intense burst of noise with a rapid onset), and pre-pulse inhibition (sensorimotor gating measured by analyzing any decrease in startle reactivity which occurs when a startling stimulus is immediately preceded by a non startling stimulus) were both measured in eight SR-Lab (San Diego Instruments, San Diego, Calif.) test stations. The rats were placed individually in a Plexiglas cylinder (10 cm diameter) which was housed in a ventilated sound-attenuating enclosure. Acoustic noise bursts (a broad band noise with a rise time and fall time of 1 msec) were presented via a speaker mounted 30 cm above the animal. Also, these speakers produced a 68 dB level of background noise throughout all test sessions. […] A decibel meter was used to calibrate the speakers in each of the eight test station to ±1% of the mean. Additionally, a SR-Lab calibrating instrument was used to calibrate each of the eight startle detection apparatuses to ±2% of the mean. Startle reactivity and pre-pulse inhibition tests were run concurrently immediately alter the motor activity test (about 4 hours and 40 minutes after the morning daily injection of nepicastat, and SKF-102698, and 10 minutes after a supplemental administration of clonidine and d-amphetamine on dosing day ten).

[3] = tested on: cardiovascular parameters; test: Cardiovascular effects of acute intravenous dosing in normal anesthetized dogs; assay type: in vivo; conditions: 1-10 mg/kg i.v., up to five hours
[4] = 100 mg/kg po x3, 6 h after third dose
[5] = conclusion over rat dose-response studies
[6] = doses of 3, 10, 30 and 100 mg/kg

## Cl.NCc1c[nH]c(=S)n1[C@@H]1CCc2c(F)cc(F)cc2C1 [R-enantiomer, (R)-5-Aminomethyl-1-(5,7-difluoro-1,2,3,4-tetrahydronaphth-2-yl)-2,3-dihydro-2-thioxo-1H-imidazole hydrochloride]
[1]; 30 mg/kg po x3
  dopamine vs vehicle, cerebral cortex: significant increase
  dopamine vs vehicle, left ventricle: significant increase
  dopamine vs vehicle, mesenteric artery: significant increase
  dopamine/norepinephrine ratio vs vehicle, cerebral cortex: no effect
  dopamine/norepinephrine ratio vs vehicle, left ventricle: significant increase
  dopamine/norepinephrine ratio vs vehicle, mesenteric artery: significant increase
  increase in DA/NE ratio, cerebral cortex: 1.1 fold
  increase in DA/NE ratio, left ventricle: 3.5 fold
  increase in DA/NE ratio, mesenteric artery: 2.6 fold
  norepinephrine vs vehicle, cerebral cortex: significant increase
  norepinephrine vs vehicle, left ventricle: did not significantly lower
  norepinephrine vs vehicle, mesenteric artery: did not significantly lower

## Fc1cc(F)cc(Cn2cc[nH]c2=S)c1 [SKF 102698, reference compound]
[2]; day ten of b.i.d. oral dosing, 1 hour
  spontaneous motor (locomotor) activity vs vehicle: significantly lower locomotor activity than its vehicle control at the first 45 minutes
[2]; day ten of b.i.d. oral dosing, 1 hour, listed as SKF102698
  spontaneous motor (locomotor) activity vs vehicle: significantly reduced
pre-pulse inhibition; day ten of b.i.d. oral dosing
  percent prepulse inhibition vs vehicle: marginally higher percent prepulse inhibition; also recorded: Neither d-amphetamine nor SKF 102698 was significantly different
[1]; 30 mg/kg po x3
  dopamine vs vehicle, cerebral cortex: significantly greater (p<0.01) than vehicle
  dopamine vs vehicle, left ventricle: significantly greater (p<0.01) than vehicle
  dopamine vs vehicle, mesenteric artery: significantly greater than vehicle
  dopamine/norepinephrine ratio vs vehicle, cerebral cortex: significantly (p<0.01) greater than vehicle
  dopamine/norepinephrine ratio vs vehicle, left ventricle: significantly (p<0.05) greater than vehicle
  dopamine/norepinephrine ratio vs vehicle, mesenteric artery: significantly greater than vehicle
  increase in DA/NE ratio, cerebral cortex: 2.7 fold
  increase in DA/NE ratio, left ventricle: 3.5 fold
  increase in DA/NE ratio, mesenteric artery: 5.5 fold
  norepinephrine vs vehicle, cerebral cortex: significantly lower than vehicle
  norepinephrine vs vehicle, left ventricle: not different from vehicle
  norepinephrine vs vehicle, mesenteric artery: significantly lower than vehicle

## Cl.NCc1c[nH]c(=S)n1[C@H]1CCc2c(F)cc(F)cc2C1 [nepicastat, (S)-5-Aminomethyl-1-(5,7-difluoro-1,2,3,4-tetrahydronaphth-2-yl)-2,3-dihydro-2-thioxo-1H-imidazole hydrochloride]
[2]; rat, in vivo, po
  spontaneous motor (locomotor) activity vs vehicle: no overall significant treatment effect
[3]
  cardiovascular effects: no cardiovascular effects
pre-pulse inhibition; rat, in vivo, po
  percent prepulse inhibition vs vehicle: None of the nepicastat dose groups were significantly different
[1]; 30 mg/kg po x3
  increase in DA/NE ratio, cerebral cortex: 1.5 fold
  increase in DA/NE ratio, left ventricle: 7.5 fold
  increase in DA/NE ratio, mesenteric artery: 8.3 fold
[1]; 100 mg/kg po x3
  maximal increase in DA/NE ratio, artery (mesenteric): 14 fold
  maximal increase in DA/NE ratio, cerebral cortex: 3.2 fold
  maximal increase in DA/NE ratio, left ventricle: 11 fold
[1]; [4]
  decrease in noradrenaline, cerebral cortex: 42%
  decrease in noradrenaline, left ventricle: 35%
  decrease in noradrenaline, mesenteric artery: 47%
  increase in dopamine, cerebral cortex: 86%
  increase in dopamine, left ventricle: 800%
  increase in dopamine, mesenteric artery: 820%
[1]; 10, 30 and 100 mg/kg
  norepinephrine concentration vs vehicle, mesenteric artery: not significantly less (p>0.05) than vehicle
[1]; all doses (3-100 mg/kg)
  dopamine/norepinephrine ratio vs vehicle, mesenteric artery: significantly (p<0.05) greater than vehicle
[1]; all three tissues at 30 mg/kg
  in vivo potency compared with the R enantiomer: more potent than the R enantiomer
[1]; [5]
  dose inhibiting DBH in the cerebral cortex of rats: 60 to 100 mg/kg/day
  dose inhibiting DBH in the left ventricle and mesenteric artery of rats: 1 to 6 mg/kg/day
[1]; [6]
  dopamine concentration vs vehicle, left ventricle: significantly (p<0.05) greater than vehicle
  dopamine concentration vs vehicle, mesenteric artery: significantly (p<0.05) greater than vehicle
  dopamine/norepinephrine ratio vs vehicle, left ventricle: significantly (p<0.05) greater than vehicle
[1]; doses of 10, 30 and 100 mg/kg
  norepinephrine concentration vs vehicle, left ventricle: significantly (p<0.05) lower than vehicle
[1]; doses of 30 and 100 mg/kg
  dopamine concentration vs vehicle, cerebral cortex: significantly (p<0.05) greater
  dopamine/norepinephrine ratio vs vehicle, cerebral cortex: significantly (p<0.05) greater
  norepinephrine concentration vs vehicle, cerebral cortex: significantly (p<0.05) lower
[1]; mesenteric artery and left ventricle
  doses at which catecholamine changes attained statistical significance (p<0.05): > 3 mg/kg
[1]; three doses at 30 mg/kg over 24 hours
  in vivo effectiveness compared with SKF 102698: more effective than SKF 102698 in the mesenteric artery and left ventricle, but less effective in the cerebral cortex
